From patent publication US20200222462A1, “METHODS OF TREATMENT USING DECITABINE AND A CD123-TARGETED THERAPY” (priority 2018, published 2020)

How the values were obtained:
[1] = system: CD34+CD38+ Multipotent progenitors (MMPs) and CD34+CD38− Hematopoietic Stem Cells (HSCs); test: Live cell counts by flow cytometry, normal donor CD34+ bone marrow cells; conditions: for cell counts (dose dependent decline): primary MMPs and HSCs, 0.46-3000 nM
Description: (§1) Number of live cells was determined by excluding DAPI+ dead cells in each well. Average of triplicates is presented on the graph.
CD34 enriched bone marrow was purchase from AllCells. Fresh (never frozen) cells were plated at 15,000 cells per well in 384 well microtiter plates and treated with drugs in triplicate using an acoustic liquid handler. The following compounds were dosed serial in 24-hour intervals: decitabine, guadecitabine and 5-azacytidine were dosed at 3000, 1000, 333.33, 111.11, 37.04, 12.35, 4.12, 1.37 and 0.46 nM at 0, 24 and 48 hours. In addition, auadecitabine was dosed at 3000, 1000, 333.33, 111.11, 37.04, 12.35, 4.12, 1.37 and 0.46 nM at 0 hours without serial dosing (single dose). Cells were stained at day 0 and day 7 following cell plating samples were stained with the antibody panel details below and readout with an Intellicyt iQue Plus flow cytometer. Cells were stained using Notable labs staining protocol number (P.SOP.009.01_Screen Readout Automated). Staining Panel for Healthy CD34+ Bone Marrow: DAPI, CD45, CD3, CD19, CD16, CD14, CD38, CD33, CD34, CD90, CD123, CD274. Live cells were gated using FSC/SSC and DAPI exclusion using FlowJo analysis software (Beckman Flow), and then further defined by cell surface marker expression. Absolute counts from triplicate wells were averaged and normalized to a vehicle-only (DMSO) control.

[2] = system: AML cell lines Kasumi-1, SKM-1 and MOLM-13; test: Live cell counts by flow cytometry (DAPI exclusion), AML cell lines; assay type: cell-based; conditions: for cell numbers (dose dependent decline): day 3, 0.46-3000 nM dosed at 0, 24 and 48 hours
Description: as §1
(§2) SKM1, Kasumi-1 and MOLM-13 cell lines were maintained in 80% RPMI 1640+20% FBS according to manufacturer's instructions. Logarithmically growing SKM1, Kasumi-1 and MOLM-13 cell lines were plated at 7,500 cells per well in 384 well microtiter plates and treated with drugs in triplicate using an acoustic liquid handler using protocol (P.SOP.007.02_Compound Addition Using GBG).
(§3) The following compounds were serially dosed in 24-hour intervals using an acoustic liquid handler. Decitabine, 5-azacytidine and guadecitabine were dosed at 3000, 1000, 333.33, 111.11, 37.04, 12.35, 4.12, 1.37 and 0.46 nM at 0, 24 and 48 hours. In addition, guadecitabine was dosed at 3000, 1000, 333.33, 111.11, 37.04, 12.35, 4.12, 1.37 and 0.46 nM at 0 hours without serial dosing (single dose). The dose range of the compounds was determined by back calculating the clinical dose and corresponding to a plasma concentration at 1.5 hours after standard dosing. The 1000 nM concentration of decitabine is based on the clinical dose of 20 mg/m^2, 1-hour intravenous infusion, one time per day for five consecutive days every 4 weeks and the maximum plasma concentration after standard dosing (1.15 micromolar). Decitabine doses in the study were selected above and below this dose. The 1000 nM concentration of 5-azacytidine is based on the clinical dose of 75 mg/m^2/day for 7 days every 28 days and the plasma concentration at 1.5 hours after standard dosing. 5-Azacytidine doses in the study were selected above and below this dose. Guadecitabine regimen is 60 mg/m^2 given subcutaneously daily on Days 1-5 in 28-day cycles (delayed as needed to allow blood count recovery). The clinically relevant guadecitabine dose is 211 nM. Cells were stained at day 0, day 3 and day 7 following cell plating samples were stained with the antibody panel details below and readout with an lntellicyt iQue Plus flow cytometer.
(§4) Cells were stained using Notable labs no wash protocol number (P.SOP.009.01_Screen Readout Automated), briefly, antibodies are added to cells with an acoustic liquid handler, incubated at 4° C. for 20 minutes and readout with an Intellicyt iQue Plus flow cytometer. Staining Panel for Cell lines: DAPI, CD123, PDL1, CD34, CD33, CD15, CD38. Live cells were gated using FSC/SSC and DAPI exclusion using FlowJo analysis software (BeckmanFLow), and then further defined by cell surface marker expression. Absolute counts or Mean Fluorescence Intensity from triplicate wells were averaged and fold change was calculated with respect to a vehicle-only (DMSO) control.

[3] = system: PD-L1 expression in AML cell lines and primary bone marrow HSCs/MMPs; test: PD-L1 expression by flow cytometry, AML cell lines and primary bone marrow cells; assay type: cell-based; conditions: any dose; all cell lines and primary bone marrow HSCs or MMPs
Source text: Cells are gated on live cells. Blast cells in AML cell lines were defined as CD33 or CD34 positive. Primary HSCs were defined as CD45^dimSSC^lowCD34^highCD38− and multipotent progenitors were defined as CD34^highCD38+, data represents mean of four normal donors and the error bars represent Standard deviation.
as §2
(§5) The following compounds were serially dosed in 24-hour intervals using an acoustic liquid handler. Decitabine, 5-azacytidine and guadecitabine were dosed at 3000, 1000, 333.33, 111.11, 37.04, 12.35, 4.12, 1.37 and 0.46 nM at 0, 24 and 48 hours. […] The dose range of the compounds was determined by back calculating the clinical dose and corresponding to a plasma concentration at 1.5 hours after standard dosing. […] Cells were stained at day 0, day 3 and day 7 following cell plating samples were stained with the antibody panel details below and readout with an lntellicyt iQue Plus flow cytometer.
Cells were stained using Notable labs no wash protocol number (P.SOP.009.01_Screen Readout Automated), briefly, antibodies are added to cells with an acoustic liquid handler, incubated at 4° C. for 20 minutes and readout with an Intellicyt iQue Plus flow cytometer. […] Absolute counts or Mean Fluorescence Intensity from triplicate wells were averaged and fold change was calculated with respect to a vehicle-only (DMSO) control.
CD34 enriched bone marrow was purchase from AllCells. […] Cells were stained at day 0 and day 7 following cell plating samples were stained with the antibody panel details below and readout with an Intellicyt iQue Plus flow cytometer. Cells were stained using Notable labs staining protocol number (P.SOP.009.01_Screen Readout Automated). […]

AML cells = test: CD123 expression in AML cells quantitated by fluorescence-activated cell sorting; assay type: cell-based
[4] = system: primary CD34+ Bone marrow cells; test: CD123 MFI by flow cytometry, primary CD34+ bone marrow cells (overall); assay type: cell-based; conditions: for CD123 MFI / expression in primary bone marrow cells: four normal donors, dose range
Description: (§6) (c) Fold change in CD123 MFI at 1000 nM clinically relevant decitabine dose (P values are calculated by student Test). Cells are gated on live cells. Blast cells in AML cell lines were defined as CD33 or CD34 positive. Primary HSCs were defined as CD45^dimSSC^lowCD34^highCD38− and multipotent progenitors were defined as CD34^highCD38+, data represents mean of four normal donors and the error bars represent Standard deviation. Fold change in CD123 Mean Fluorescence Intensity (MFI) with respect to DMSO treated cells is presented.
(§7) CD34 enriched bone marrow was purchase from AllCells.

SKM1 cell line = test: CD123 MFI by flow cytometry, SKM1; assay type: cell-based; conditions: for CD123 MFI (dose dependent increase): SKM1, 0.46-3000 nM, day 7; for CD123 expression at clinically relevant dose (FIG. 2c): 1000 nM
Description: as §6, §2, §3, §4

MOLM-13 = test: CD123 MFI by flow cytometry, MOLM-13; assay type: cell-based; conditions: 0.46-3000 nM, day 7
Description: as §6
(§8) SKM1, Kasumi-1 and MOLM-13 cell lines were maintained in 80% RPMI 1640+20% FBS according to manufacturer's instructions. […]
as §5, with “handler.” for “handler. Decitabine, 5-azacytidine and guadecitabine were dosed at 3000, 1000, 333.33, 111.11, 37.04, 12.35, 4.12, 1.37 and 0.46 nM at 0, 24 and 48 hours.”
(§9) Cells were stained using Notable labs no wash protocol number (P.SOP.009.01_Screen Readout Automated), briefly, antibodies are added to cells with an acoustic liquid handler, incubated at 4° C. for 20 minutes and readout with an Intellicyt iQue Plus flow cytometer. […]

Kasumi-1 = test: CD123 MFI by flow cytometry, Kasumi-1; assay type: cell-based; conditions: 0.46-3000 nM, day 7
Description: as §6, §8
as §5, with “handler.” for “handler. Decitabine, 5-azacytidine and guadecitabine were dosed at 3000, 1000, 333.33, 111.11, 37.04, 12.35, 4.12, 1.37 and 0.46 nM at 0, 24 and 48 hours.”
as §9

AML patients = system: AML patients
Description: Fifteen AML patients treated in our ongoing first in human phase 1 clinical trial (NCT0262355) evaluating CD123CAR T cells in patients with relapsed or refractory AML or blastic plasmacytoid dendritic cell neoplasm (BPDCN) received lymphodepletion prior to CAR T cell infusion on day 0. All received fludarabine (25-30 mg/m2/day) and cyclophosphamide (300-500 mg/m2/day). Both were administered daily from days −5 to −3. Eight also received decitabine (20 mg/m2/day) given daily for 5 days from days −7 to −3 or daily for 3 days from days −5 to −3.

[5] = system: Hematopoietic stem cells (HSCs); test: CD123 expression by flow cytometry, primary hematopoietic stem cells; assay type: cell-based; conditions: for CD123 expression at clinically relevant dose (FIG. 2c): HSC; for increase in CD123 expression vs DMSO: HSCs
Source text: as §6, with “(c) Fold change in CD123 MFI at 1000 nM clinically relevant decitabine dose (P values are calculated by student Test).” left out
as §7

[6] = clinical dose 20 mg/m^2, 1-hour intravenous infusion, once per day for five consecutive days every 4 weeks; cited from earlier work
AML blasts = conditions: in vitro; reported; cited from earlier work
CD38+CD34+ MMPs = test: CD123 expression by flow cytometry, primary multipotent progenitors; assay type: cell-based; conditions: for average increase in CD123 expression vs DMSO / CD123 expression at clinically relevant dose (FIG. 2c): MMPs
Source text: as §6, with “(c) Fold change in CD123 MFI at 1000 nM clinically relevant decitabine dose (P values are calculated by student Test).” left out
as §7

[7] = 5 day treatment, decitabine p<0.001, azacitidine p<0.05

CN[C@@H]1C[C@H]2O[C@@](C)([C@@H]1OC)n1c3ccccc3c3c4c(c5c6ccccc6n2c5c31)C(=O)NC4 [Staurosporine]
viable cells ([1]; positive control for cell death, primary cell groups): significant reductions
viable cells ([2]; positive control for cell death, all cell line groups): significant reductions

Nc1ncn([C@@H]2O[C@H](CO)[C@@H](O)[C@H]2O)c(=O)n1 [5-azacytidine]
PD-L1 expression [3]: no impact
CD123 expression in AML cells (AML cells; [7]): significant increase
cell counts (dose dependent decline) [1]: dose dependent decline
CD123 MFI / expression in primary bone marrow cells [4]: highly variable
CD123 MFI (dose dependent increase) (SKM1 cell line): did not impact
cell numbers (dose dependent decline) [2]: dose dependent decline
CD123 MFI (dose dependent increase) (MOLM-13): did not impact
CD123 MFI (dose dependent increase) (Kasumi-1): did not impact

Nc1ncn([C@H]2C[C@H](O)[C@@H](CO)O2)c(=O)n1 [decitabine]
PD-L1 expression [3]: no impact
treatment related adverse events in decitabine treated group (AML patients; 8 patients with decitabine vs 7 without): not observed increased treatment related adverse events
tolerability / dose limiting toxicities (AML patients; AML patients, fludarabine and cyclophosphamide lymphodepletion, eight also decitabine 20 mg/m2/day, CAR T infusion day 0): well tolerated
CD123 expression at clinically relevant dose (FIG. 2c) ([5]; 1000 nM): significantly enhanced
increase in CD123 expression vs DMSO ([5]; 111.11 nM): 1.3 fold
increase in CD123 expression vs DMSO ([5]; 333.33 nM): 1.6 fold
increase in CD123 expression vs DMSO ([5]; 1000 nM): 1.4 fold
CD123 expression in AML cells (AML cells; 3 day treatment, p<0.001): significant increase
CD123 expression in AML cells (AML cells; [7]): significant increase
maximum plasma concentration after standard dosing [6]: 1.15 µM
cell death at high dose ([1]; 3000 nM, FIG. 1b): cell death
cell counts (dose dependent decline) [1]: dose dependent decline
CD123 MFI with respect to DMSO treated cells ([4]; 3000 nM, FIG. 2b): no change
CD123 MFI in primary CD34+ bone marrow cells ([4]; clinically relevant dose of 1000 nM): increase
CD123 MFI / expression in primary bone marrow cells [4]: upregulates
CD123 expression at clinically relevant dose (FIG. 2c) (SKM1 cell line): significantly enhanced
CD123 MFI (dose dependent increase) (SKM1 cell line): upregulates
CD123 MFI (dose dependent increase) (SKM1 cell line; listed as Decitabine): dose dependent increase
CD123 expression in AML blasts (AML blasts): upregulate
average increase in CD123 expression vs DMSO (CD38+CD34+ MMPs; 111.11 nM): 1.4 fold
average increase in CD123 expression vs DMSO (CD38+CD34+ MMPs; 333.33 nM): 1.4 fold
CD123 expression at clinically relevant dose (FIG. 2c) (CD38+CD34+ MMPs; 1000 nM): significantly enhanced
average increase in CD123 expression vs DMSO (CD38+CD34+ MMPs; 1000 nM): 1.3 fold
cell numbers (dose dependent decline) [2]: dose dependent decline

Nc1ncn([C@H]2C[C@H](OP(=O)(O)OC[C@H]3O[C@@H](n4cnc5c(=O)[nH]c(N)nc54)C[C@@H]3O)[C@@H](CO)O2)c(=O)n1 [guadecitabine]
PD-L1 expression [3]: no impact
CD123 expression at clinically relevant dose (FIG. 2c) ([5]; 1000 nM): significantly enhanced
change in CD123 expression ([5]; normal bone marrow HSCs, regardless of the dose): did not show any change
CD123 expression at clinically relevant dose (FIG. 2c) (SKM1 cell line): significantly enhanced
CD123 MFI (dose dependent increase) (SKM1 cell line): increase in CD123 MFI in a dose dependent manner
CD123 expression at clinically relevant dose (FIG. 2c) (CD38+CD34+ MMPs; 1000 nM): significantly enhanced
change in CD123 expression (CD38+CD34+ MMPs; normal bone marrow MMPs, regardless of the dose): did not show any change
cell numbers (dose dependent decline) [2]: dose dependent decline
